Measurements: patent US20240099991A1, “HOST DIRECTED DRUG COMBINATIONS FOR TREATMENT OF VIRAL INFECTIONS” (priority 2021, published 2024)
Read-outs that look alike come from different tables or passages of the source.

Columns and labels:
SARS-CoV-2 [1] = format: cell-based
SARS-CoV-2 [2] = test: In vivo efficacy against SARS-CoV-2 in Syrian Golden Hamster Model (lung viral load); details: oral, once daily for 3 days (1-3 DPI), Atovaquone 200 mg/kg, Cepharantine 8 mg/kg, combination 200 + 8 mg/kg
Description: In vivo efficacy evaluation of Atovaquone and Cepharanthine alone and in combination against SARS-CoV-2 in Syrian Golden Hamster Model [Study Protocol Reference:) Syrian hamsters as a small animal model for SARS-CoV-2 infection and countermeasure development. Masaki Imai et al., PNAS 2020, 117(28)16587-16595]
Data Analysis One way ANOVA-Dunnett's multiple comparison test

Vero E6 cells [3] = test: Cytotoxicity of test agents in the Vero E6 checkerboard assay; details: Experiment 2, highest concentration tested
Vero E6 cells [4] = test system: Vero E6 cells

O=C1C(O)=C([C@H]2CC[C@H](c3ccc(Cl)cc3)CC2)C(=O)c2ccccc21 [Atovaquone, atovaquone]
antiviral efficacy (SARS-CoV-2 [1]; 0.12-0.37, alone): inactive | inhibition of virus induced cytopathic effects (CPE) (SARS-CoV-2 [1]; Experiment 1, Atovaquone 0.12 micromol alone (Niclosamide 0.00)): 2.38% | inhibition of virus induced cytopathic effects (CPE) (SARS-CoV-2 [1]; Experiment 1, Atovaquone 0.37 micromol alone (Niclosamide 0.00)): 9.52% | inhibition of virus induced cytopathic effects (CPE) (SARS-CoV-2 [1]; Experiment 1, Atovaquone 1.10 micromol alone (Niclosamide 0.00)): 16.67% | inhibition of virus induced cytopathic effects (CPE) (SARS-CoV-2 [1]; Experiment 1, Atovaquone 3.30 micromol alone (Niclosamide 0.00)): 50.00% | inhibition of virus induced cytopathic effects (CPE) (SARS-CoV-2 [1]; Experiment 2, Atovaquone 0.12 micromol alone (Cepharanthine 0.00)): 2.38% | inhibition of virus induced cytopathic effects (CPE) (SARS-CoV-2 [1]; Experiment 2, Atovaquone 0.37 micromol alone (Cepharanthine 0.00)): 9.52% | inhibition of virus induced cytopathic effects (CPE) (SARS-CoV-2 [1]; Experiment 2, Atovaquone 1.10 micromol alone (Cepharanthine 0.00)): 16.67% | inhibition of virus induced cytopathic effects (CPE) (SARS-CoV-2 [1]; Experiment 2, Atovaquone 3.30 micromol alone (Cepharanthine 0.00)): 50.00% | inhibits virus induced cytopathic effects (CPE) (SARS-CoV-2 [1]; concentration of 3.3 micro mol): 50% | Mean Difference (Log10PFU/lung), Infection Control vs. group (SARS-CoV-2 [2]): 0.74 Log10PFU/lung

COc1ccc2cc1Oc1ccc(cc1)C[C@H]1c3c(cc4c(c3Oc3cc5c(cc3OC)CCN(C)[C@@H]5C2)OCO4)CCN1C [Cepharanthine, cepharantine]
antiviral efficacy (SARS-CoV-2 [1]; 0.04-0.12 micromole, alone): inactive | inhibition of virus induced cytopathic effects (CPE) (SARS-CoV-2 [1]; Cepharanthine 0.04 micromol alone (Atovaquone 0.00)): 7.14% | inhibition of virus induced cytopathic effects (CPE) (SARS-CoV-2 [1]; Cepharanthine 0.12 micromol alone (Atovaquone 0.00)): 9.52% | inhibition of virus induced cytopathic effects (CPE) (SARS-CoV-2 [1]; Cepharanthine 0.37 micromol alone (Atovaquone 0.00)): 14.29% | inhibition of virus induced cytopathic effects (CPE) (SARS-CoV-2 [1]; Cepharanthine 1.10 micromol alone (Atovaquone 0.00)): 38.10% | Mean Difference (Log10PFU/lung), Infection Control vs. group (SARS-CoV-2 [2]): 0.42 Log10PFU/lung | cytotoxicity (Vero E6 cells [3]): neither cepharantine nor atovaquone are cytotoxic

O=C(Nc1ccc([N+](=O)[O-])cc1Cl)c1cc(Cl)ccc1O [Niclosamide, niclosamide]
antiviral efficacy (SARS-CoV-2 [1]; 0.12 to 0.37 micromolar, without the addition of atovaquone): inactive | inhibition of virus induced cytopathic effects (CPE) (SARS-CoV-2 [1]; Niclosamide 0.12 micromol alone (Atovaquone 0.00)): 11.90% | inhibition of virus induced cytopathic effects (CPE) (SARS-CoV-2 [1]; Niclosamide 0.37 micromol alone (Atovaquone 0.00)): 9.52% | inhibition of virus induced cytopathic effects (CPE) (SARS-CoV-2 [1]; Niclosamide 1.10 micromol alone (Atovaquone 0.00)): 16.67% | antiviral efficacy (SARS-CoV-2 [1]; concentrations ranging from 0.12 to 1,1 micro mol): non-efficacious | cytotoxicity (Vero E6 cells [4]): non cytotoxic

CCC(CC)COC(=O)[C@H](C)N[P@](=O)(OC[C@H]1O[C@@](C#N)(c2ccc3c(N)ncnn23)[C@H](O)[C@@H]1O)Oc1ccccc1 [Remdesivir]
Mean Difference (Log10PFU/lung), Infection Control vs. group (SARS-CoV-2 [2]): 0.97 Log10PFU/lung
